Assay results published in PMC7570625, “Design and Synthesis of a Novel NIR Celecoxib-Based Fluorescent Probe for Cyclooxygenase-2 Targeted Bioimaging in Tumor Cells” (Molecules, 2020).

Molecular target: T1, COX-2 (Homo sapiens, UniProt P35354)
T1 construct: gene PTGS2
T1 sequence (P35354 18-604): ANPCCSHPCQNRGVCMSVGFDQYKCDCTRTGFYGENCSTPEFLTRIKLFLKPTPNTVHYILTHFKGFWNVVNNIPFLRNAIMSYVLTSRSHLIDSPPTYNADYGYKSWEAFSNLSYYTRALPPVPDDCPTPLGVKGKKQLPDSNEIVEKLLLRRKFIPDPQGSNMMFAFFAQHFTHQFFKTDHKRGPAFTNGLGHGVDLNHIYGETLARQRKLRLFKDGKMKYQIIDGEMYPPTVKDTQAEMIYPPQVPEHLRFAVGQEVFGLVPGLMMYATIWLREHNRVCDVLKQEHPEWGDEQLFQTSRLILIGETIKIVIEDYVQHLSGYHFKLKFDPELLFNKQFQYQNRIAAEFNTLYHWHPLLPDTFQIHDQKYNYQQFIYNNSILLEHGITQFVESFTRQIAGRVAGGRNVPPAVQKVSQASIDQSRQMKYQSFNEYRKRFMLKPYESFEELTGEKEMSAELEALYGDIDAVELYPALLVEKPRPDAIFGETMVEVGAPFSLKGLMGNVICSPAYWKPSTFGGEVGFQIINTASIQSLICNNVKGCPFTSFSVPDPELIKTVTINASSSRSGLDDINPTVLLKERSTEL
Assay: recombinant human COX-2 inhibition, PGE2 measured by UPLC-MS/MS
Format: biochemical

IC50: 1570 nM
SMILES: Cc1ccc(-c2cc(CNC(=O)CCCCC[N+]3=C(/C=C/C=C/C=C4/N(C)c5ccccc5C4(C)C)C(C)(C)c4ccccc43)nn2-c2ccc(S(N)(=O)=O)cc2)cc1 [CCY-5]
